Experimental data published in ChEMBL document CHEMBL1136654, “1H-Pyrazolo[3,4-b]pyridine inhibitors of cyclin-dependent kinases” (Bioorg Med Chem Lett, 2003).

Assays:
[1] = molecular target: Cyclin-dependent kinase 2/cyclin E (Homo sapiens, UniProt P24941); assay: In vitro inhibition of human CDK2/cyclin E.; type: protein-complex assay
[2] = molecular target: Cyclin-dependent kinase 1/cyclin B (Homo sapiens, UniProt P06493); assay: Inhibitory concentration against CDK1/cyclin B was determined; type: protein-complex assay
[3] = molecular target: Tyrosine-protein kinase Lck (Homo sapiens, UniProt P06239); assay: Inhibition of LCK
Chain of Tyrosine-protein kinase Lck (P06239 whole entry): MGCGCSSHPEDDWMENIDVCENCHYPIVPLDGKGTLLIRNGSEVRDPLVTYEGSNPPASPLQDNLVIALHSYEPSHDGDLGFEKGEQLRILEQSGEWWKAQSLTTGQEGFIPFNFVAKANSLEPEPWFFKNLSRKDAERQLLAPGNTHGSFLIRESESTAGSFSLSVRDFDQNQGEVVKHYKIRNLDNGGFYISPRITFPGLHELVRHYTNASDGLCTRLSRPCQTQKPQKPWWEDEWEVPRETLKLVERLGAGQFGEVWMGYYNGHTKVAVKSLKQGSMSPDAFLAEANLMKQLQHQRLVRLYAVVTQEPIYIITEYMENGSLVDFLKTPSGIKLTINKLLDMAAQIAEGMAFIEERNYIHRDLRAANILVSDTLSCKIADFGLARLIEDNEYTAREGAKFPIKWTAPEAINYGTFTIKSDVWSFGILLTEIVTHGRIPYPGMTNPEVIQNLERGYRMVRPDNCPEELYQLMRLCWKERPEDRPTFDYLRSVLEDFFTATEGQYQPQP

[4] = molecular target: Cyclin-dependent kinase 7/ cyclin H (Homo sapiens, UniProt P50613); assay: Inhibition of CDK7/cyclin H; type: protein-complex assay
Chain of Cyclin-dependent kinase 7/ cyclin H (P51946 whole entry): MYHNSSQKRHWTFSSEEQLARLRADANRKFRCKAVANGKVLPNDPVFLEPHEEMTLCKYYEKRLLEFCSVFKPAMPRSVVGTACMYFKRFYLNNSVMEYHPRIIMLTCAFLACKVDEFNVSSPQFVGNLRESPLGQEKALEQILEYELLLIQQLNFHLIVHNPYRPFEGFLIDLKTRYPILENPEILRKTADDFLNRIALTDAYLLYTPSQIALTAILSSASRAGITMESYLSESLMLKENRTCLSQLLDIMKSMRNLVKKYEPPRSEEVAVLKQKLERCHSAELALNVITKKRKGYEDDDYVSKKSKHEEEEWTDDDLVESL
Chain of Cyclin-dependent kinase 7/ cyclin H (P50613 whole entry): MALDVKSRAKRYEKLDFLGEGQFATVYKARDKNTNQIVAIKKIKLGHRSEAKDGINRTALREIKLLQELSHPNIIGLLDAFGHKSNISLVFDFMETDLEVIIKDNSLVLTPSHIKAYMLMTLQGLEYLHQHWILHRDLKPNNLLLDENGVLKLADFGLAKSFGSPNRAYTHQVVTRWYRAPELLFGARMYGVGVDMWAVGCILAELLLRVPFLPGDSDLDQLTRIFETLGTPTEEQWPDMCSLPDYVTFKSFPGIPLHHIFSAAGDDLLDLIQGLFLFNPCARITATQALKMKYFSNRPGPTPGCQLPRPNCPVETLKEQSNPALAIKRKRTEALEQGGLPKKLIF

[5] = molecular target: Protein kinase C (PKC); assay: Inhibition of PKC; type: protein assay
[6] = molecular target: Cyclin-dependent kinase 4/cyclin D (Homo sapiens, UniProt P11802); assay: Inhibition of CDK4/cyclin D was determined; type: protein-complex assay
[7] = molecular target: cAMP-dependent protein kinase (PKA) (Homo sapiens, UniProt P22694+P17612+P22612); assay: Inhibition of PKA; type: protein assay
[8] = test system: A2780; assay: Cytotoxic effect in ovarian cancer cell line (A2780); type: functional, cell-based; details: Homo sapiens

| SMILES | IC50 [1] [nM] | IC50 [2] [nM] | further results |
| --- | --- | --- | --- |
| CCCCN(C)c1c(C(=O)c2ccccc2)cnc2[nH]ncc12 | > 25000 |  |  |
| CCCC(C)Oc1c(C(=O)c2ccccc2)cnc2[nH]ncc12 (stereo not given) | 520 | 310 |  |
| O=C(c1ccccc1)c1cnc2[nH]ncc2c1OCc1ccccc1 | 280 | 350 |  |
| O=C(c1ccccc1)c1cnc2[nH]ncc2c1OCCO | 3700 |  |  |
| C=C(c1ccccc1)c1c[nH]c2nncc-2c1OCCCC | > 25000 |  |  |
| CCCCOc1c2cnnc-2[nH]cc1C(O)c1ccccc1 (stereo not given) | > 25000 |  |  |
| CCCCSc1c(C(=O)c2ccccc2)cnc2[nH]ncc12 | 4400 |  |  |
| CCCCOc1c(Cc2ccccc2)c[nH]c2nncc1-2 | > 25000 |  |  |
| CCn1ncc2c(OCCC(C)C)c(C(=O)c3ccccc3)cnc21 | > 25000 |  |  |
| CCCCCOc1c(C(=O)c2ccccc2)cnc2[nH]ncc12 | 240 | 310 |  |
| O=C(c1ccccc1)c1cnc2[nH]ncc2c1Oc1ccccc1 | 15000 |  |  |
| CN(C)CCOc1c(C(=O)c2ccccc2)cnc2[nH]ncc12 | 17000 |  |  |
| CC(C)CCOc1c(C(=O)c2ccccc2)c[nH]c2nncc1-2 | 180 | 240 | IC50 [3]: > 50000 nM; IC50 [4]: 1100 nM; IC50 [5]: > 50000 nM; IC50 [6]: > 25000 nM; IC50 [7]: > 50000 nM |
| O=C(c1ccccc1)c1cnc2[nH]ncc2c1OC1CCCCC1 | 660 | 600 |  |
| CCCOc1c(C(=O)c2ccccc2)cnc2[nH]ncc12 | 180 | 220 |  |
| CCCCOc1c(C(=O)c2ccccc2)cnc2[nH]ncc12 [SQ-67563] | 110 | 150 | IC50 [8]: 5800 nM; IC50 [6]: > 25000 nM |
